As a reminder, the IC50 is the concentration that inhibits the measured activity by half.

For the first assay, the system named is IL-15 induced P-STAT5 in human PBMC (total lymphocytes). As to the kind of experiment: PBMC IL-15 Induced P-STAT5. It counts as cell-based. As to conditions: IL-15 stimulated, read-out: PBMC IL15-pSTAT5 IC50. As for the experimental part: PBMC IL-15 Induced P-STAT5
Frozen human PBMC (200-250 million cells/vial) was thawed at 37° C. The cells were transferred to 10 mL warm medium in a 50-mL conical tube, and centrifuged at 1,200 RPM at room temperature for 5 min. The supernatant was aspirated. […] After adding 47 ml D-PBS (37° C.) to PBMC/FBS suspension, centrifuging at 1,200 RPM at room temperature for 5 min, and aspirating the supernatant, the cells were resuspended in 20 mL warm RPMI medium. Ninety μL of cell suspension were pipetted per well in a 96-well, deep-well, V-bottom plate, and the plate was incubated at 37° C. for 30 min. […] After adding 0.8 mL staining buffer per well, the plates were centrifuged at 1,200 RPM (Beckman GS-6R or Sorvall Legend) at room temperature for 5 min, and again the supernatant was aspirated using a 8-channel or 12-channel manifold. The plate was vortexed, and 0.35 mL 90% methanol/10% H2O (−20° C.) was added per well, and the plate incubated on ice for 20 min. After again adding 0.8 mL staining buffer per well, the plates were centrifuged at 1,200 RPM (Beckman GS-6R or Sorvall Legend) at room temperature for 5 min, and again the supernatant was aspirated using a 8-channel or 12-channel manifold, and then 0.8 mL Staining buffer was added per well. After once again adding 0.8 mL staining buffer per well, the plates were centrifuged at 1,200 RPM (Beckman GS-6R or Sorvall Legend) at room temperature for 5 min, and again the supernatant was aspirated using a 8-channel or 12-channel manifold. […] Samples of 250 μL/well were transferred to a 96-well U-bottom plate, and the FACS analysis was performed gating on total lymphocytes. Samples were analyzed using a BD Calibur™ or BD FACSCanto™ flow cytometer equipped with the BD High Throughput Sampler.
As to `C=CC(=O)N1C[C@@H](C)C[C@@H](Nc2ncnc3[nH]ccc23)C1` (racemic) [Example 22, rac-cis-1-((3R,5S)-3-((7H-Pyrrolo[2,3-d]pyrimidin-4-yl)amino)-5-methylpiperidin-1-yl)prop-2-en-1-one], the IC50 was found to be 0.216 µM. Same read-out and setting: the result for `C=CC(=O)N1CCC(Nc2cnc3[nH]cc(C(=O)NCC4(O)CC[C@@H](C)C4)c3n2)CC1` (stereo partly drawn) [Example 239, 2-[(1-acryloylpiperidin-4-yl)amino]-N-{[(3R)-1-hydroxy-3-methylcyclopentyl]methyl}-5H-pyrrolo[2,3-b]pyrazine-7-carboxamide] reads 1.9 µM.

With `C=CC(=O)N1CCC(Nc2cnc3[nH]cc(C(=O)NCCCC#N)c3n2)CC1` [Example 242, 2-[(1-acryloylpiperidin-4-yl)amino]-N-(3-cyanopropyl)-5H-pyrrolo[2,3-b]pyrazine-7-carboxamide], the 50% inhibitory concentration (IC50) is 1.1 µM. For `C=CC(=O)N1CCC(Nc2cnc3[nH]cc(C(=O)N[C@H](C(C)C)[C@@H](O)C(F)(F)F)c3n2)CC1` [Example 248, 2-[(1-acryloylpiperidin-4-yl)amino]-N-[(2R,3R)-1,1,1-trifluoro-2-hydroxy-4-methylpentan-3-yl]-5H-pyrrolo[2,3-b]pyrazine-7-carboxamide], the IC50 stood at 0.893 µM. On the same count and under the same terms, the result for `C=CC(=O)N1CCC(Nc2cnc3[nH]cc(C(=O)NCC4(O)CCCC(F)(F)C4)c3n2)CC1` (stereo not shown) [Example 249, 2-[(1-acryloylpiperidin-4-yl)amino]-N-[(3,3-difluoro-1-hydroxycyclohexyl)methyl]-5H-pyrrolo[2,3-b]pyrazine-7-carboxamide] reads 2.11 µM; that for `C=CC(=O)N1CCC(Nc2cnc3[nH]cc(C(=O)NCC4(O)CCCC[C@H]4F)c3n2)CC1` (stereo partly drawn) [Example 250, 2-[(1-acryloylpiperidin-4-yl)amino]-N-{[(2R)-2-fluoro-1-hydroxycyclohexyl]methyl}-5H-pyrrolo[2,3-b]pyrazine-7-carboxamide], 4.12 µM. Still for that read-out and setting: the result for `C=CC(=O)N1CCC(Nc2cnc3[nH]cc(C(=O)NC(CC)C4(O)CCC4)c3n2)CC1` (stereo not shown) [Example 251b, 2-[(1-acryloylpiperidin-4-yl)amino]-N-[1-(1-hydroxycyclobutyl)propyl]-5H-pyrrolo[2,3-b]pyrazine-7-carboxamide] reads 1.51 µM; that for `C=CC(=O)N1CCC(Nc2cnc3[nH]cc(C(=O)N[C@@H](C(C)C)[C@H](O)C(F)(F)F)c3n2)CC1` [Example 252, 2-[(1-acryloylpiperidin-4-yl)amino]-N-[(2S,3S)-1,1,1-trifluoro-2-hydroxy-4-methylpentan-3-yl]-5H-pyrrolo[2,3-b]pyrazine-7-carboxamide], 0.673 µM; that for `C=CC(=O)N1CCC(Nc2cnc3[nH]cc(C(=O)NCC4(O)CCC(F)(F)CC4)c3n2)CC1` [Example 252b, 2-[(1-acryloylpiperidin-4-yl)amino]-N-[(4,4-difluoro-1-hydroxycyclohexyl)methyl]-5H-pyrrolo[2,3-b]pyrazine-7-carboxamide], 2.47 µM. Take `C=CC(=O)N1CCC(Nc2cnc3[nH]cc(C(=O)NCC4(O)CCCC[C@@H]4F)c3n2)CC1` (stereo partly drawn) [Example 254, 2-[(1-acryloylpiperidin-4-yl)amino]-N-{[(2S)-2-fluoro-1-hydroxycyclohexyl]methyl}-5H-pyrrolo[2,3-b]pyrazine-7-carboxamide]: the IC50 was 0.837 µM. On the same count and under the same terms, the result for `C=CC(=O)N1CCC(Nc2cnc3[nH]cc(C(=O)NCCCCCCCCC#N)c3n2)CC1` [Example 260, 2-[(1-acryloylpiperidin-4-yl)amino]-N-(8-cyanooctyl)-5H-pyrrolo[2,3-b]pyrazine-7-carboxamide] reads 0.575 µM; that for `C=CC(=O)N1CCC(Nc2cnc3[nH]cc(C(=O)N[C@H]4CCC[C@H](CC#N)C4)c3n2)CC1` [Example 262, 2-[(1-acryloylpiperidin-4-yl)amino]-N-[(1S,3S)-3-(cyanomethyl)cyclohexyl]-5H-pyrrolo[2,3-b]pyrazine-7-carboxamide], 1.33 µM. Still for that read-out and setting: under `C=CC(=O)N1CCC(Nc2cnc3[nH]cc(C(=O)N4CCC4)c3n2)CC1` [Example 284, 1-(4-{[7-(azetidin-1-ylcarbonyl)-5H-pyrrolo[2,3-b]pyrazin-2-yl]amino}piperidin-1-yl)prop-2-en-1-one] stands 2.79 µM; under `C=CC(=O)N1CCC(Nc2cnc3[nH]cc(C(=O)N4CCCC4)c3n2)CC1` [Example 287, 1-(4-{[7-(pyrrolidin-1-ylcarbonyl)-5H-pyrrolo[2,3-b]pyrazin-2-yl]amino}piperidin-1-yl)prop-2-en-1-one], 7.37 µM. Still for that read-out and setting: under `C=CC(=O)N1CC[C@@H](Nc2cnc3[nH]cc(C(=O)NC(C)C)c3n2)[C@H](F)C1` [Example 291, 2-{[(3R,4R)-1-acryloyl-3-fluoropiperidin-4-yl]amino}-N-(propan-2-yl)-5H-pyrrolo[2,3-b]pyrazine-7-carboxamide] stands 0.168 µM. As for `C=CC(=O)N1CCN(c2cnc3[nH]cc(C(=O)NC(C)C)c3n2)C[C@H]1C(C)C` [Example 294, 2-[(3R)-4-acryloyl-3-(propan-2-yl)piperazin-1-yl]-N-(propan-2-yl)-5H-pyrrolo[2,3-b]pyrazine-7-carboxamide], the IC50 turned out to be 1 µM. Still for that read-out and setting: under `C=CC(=O)N1CCN(c2cnc3[nH]cc(C(=O)NC(C)C)c3n2)[C@@H](C)C1` [Example 297, 2-[(2S)-4-acryloyl-2-methylpiperazin-1-yl]-N-(propan-2-yl)-5H-pyrrolo[2,3-b]pyrazine-7-carboxamide] stands 0.752 µM; under `C=CC(=O)N1[C@H](C)CN(c2cnc3[nH]cc(C(=O)NC(C)C)c3n2)C[C@@H]1C` [Example 306, 2-[(3R,5S)-4-acryloyl-3,5-dimethylpiperazin-1-yl]-N-(propan-2-yl)-5H-pyrrolo[2,3-b]pyrazine-7-carboxamide], 1.09 µM; under `C=CC(=O)N1CCN(c2cnc3[nH]cc(C(=O)NC(C)C)c3n2)[C@H](C)C1` [Example 307, 2-[(2R)-4-acryloyl-2-methylpiperazin-1-yl]-N-(propan-2-yl)-5H-pyrrolo[2,3-b]pyrazine-7-carboxamide], 0.457 µM. On the same count and under the same terms, under `C=CC(=O)N1CC2CCC1CN2c1cnc2[nH]cc(C(=O)NC(C)C)c2n1` (stereo not shown) [Example 308, 2-(5-acryloyl-2,5-diazabicyclo[2.2.2]oct-2-yl)-N-(propan-2-yl)-5H-pyrrolo[2,3-b]pyrazine-7-carboxamide] stands 2.24 µM. On to `C=CC(=O)N1CCN(c2cnc3[nH]cc(C(=O)NC(C)C)c3n2)C2(CC2)C1` [Example 313, 2-(7-acryloyl-4,7-diazaspiro[2.5]oct-4-yl)-N-(propan-2-yl)-5H-pyrrolo[2,3-b]pyrazine-7-carboxamide], for which the IC50 is 0.706 µM.

As for `C=CC(=O)N1CCN(c2cnc3[nH]cc(C(=O)NC(C)C)c3n2)[C@H](CC)C1` [Example 321, 2-[(2R)-4-acryloyl-2-ethylpiperazin-1-yl]-N-(propan-2-yl)-5H-pyrrolo[2,3-b]pyrazine-7-carboxamide], the IC50 worked out at 0.415 µM.

In the case of `C=CC(=O)N1CCN(c2cnc3[nH]cc(C(=O)NC(C)C)c3n2)[C@@H](CC)C1` [Example 325, 2-[(2S)-4-acryloyl-2-ethylpiperazin-1-yl]-N-(propan-2-yl)-5H-pyrrolo[2,3-b]pyrazine-7-carboxamide], the half-inhibitory concentration (IC50) worked out at 1.56 µM. Take `C=CC(=O)N1C[C@@H](C)N(c2cnc3[nH]cc(C(=O)NC(C)C)c3n2)[C@@H](C)C1` [Example 328, 2-[(2R,6S)-4-acryloyl-2,6-dimethylpiperazin-1-yl]-N-(propan-2-yl)-5H-pyrrolo[2,3-b]pyrazine-7-carboxamide]: the IC50 worked out at 0.891 µM. Same read-out and setting: under `C=CC(=O)N1CCC(Oc2cnc3[nH]cc(C(=O)NC(C)(C)C)c3n2)CC1` [Example 338, 2-((1-Acryloylpiperidin-4-yl)oxy)-N-(tert-butyl)-5H-pyrrolo[2,3-b]pyrazine-7-carboxamide] stands 0.48 µM.

A further assay relates to IL-15 induced STAT5 phosphorylation in Human Whole Blood (total lymphocytes). The experiment in a line: HWB IL-15 Induced STAT5 Phosphorylation Assay. It counts as cell-based. To be noted: Lymphocyte, IL-15 stimulated, read-out: HWB-IL15-pSTAT5 IC50. As for the experimental part:
HWB IL-15 Induced STAT5 Phosphorylation Assay
After mixing and incubating for 45 minutes at 37° C., 5 μl D-PBS (unstimulated control) or 20× stocks of 5 μl human IL-15 (final concentration is 50 ng/ml) were added, and mixed three times. After incubating 15 minutes at 37° C., 1× Lyse/Fix Buffer (BD Phosflow 5× Lyse/Fix Buffer) was added to all wells at 1000 μl/well, then incubated for 20 minutes at 37° C. and spun 5 mins at 1200 rpm. […] Following incubating at 4° C. over night, all the samples were transferred to 96-well polypropylene U-bottom plate, and checked by flow cytometry gated on total lymphocytes.
For `C=CC(=O)N1C[C@@H](C)C[C@@H](Nc2ncnc3[nH]ccc23)C1` (racemic) [Example 22, rac-cis-1-((3R,5S)-3-((7H-Pyrrolo[2,3-d]pyrimidin-4-yl)amino)-5-methylpiperidin-1-yl)prop-2-en-1-one], the IC50 amounted to 0.712 µM. Still for that read-out and setting: the result for `C=CC(=O)N1CC[C@@H]2CCN(c3ncnc4[nH]ccc34)[C@@H]2C1` (single isomer, unassigned) [Example 8] reads 0.399 µM.

As to `C=CC(=O)N1CC(Nc2ncnc3[nH]ccc23)CCC1CO` (stereo not shown) [Example 52, 1-[2-(Hydroxymethyl)-5-(7H-pyrrolo[2,3-d]pyrimidin-4-ylamino)piperidin-1-yl]prop-2-en-1-one], the IC50 was determined as 0.235 µM.

For the origin of these results see US11111242B2, “Pyrrolo[2,3-d]pyrimidinyl, pyrrolo[2,3-b]pyrazinyl and pyrrolo[2,3-d]pyridinyl acrylamides” (Pfizer Inc., priority 2013, dated 2021).
